Article PMC7066271 (Clinical and Experimental Nephrology, 2020)

Experiments:
[1] = Plasma pharmacokinetics of dotinurad, single 4 mg oral dose with and without oxaprozin, in healthy adult males; assay type: in vivo, human
Description: This was a single-center, open-label, two-period, sequential-group, add-on, drug-drug interaction study in healthy adult males conducted at a Japanese clinical pharmacology study center. Following a screening period ranging from 29 days before, to the day before the study drug administration (Day -1), eligible subjects were admitted to the study site on Day-1, received a single 4 mg oral dose of dotinurad in a fed state, and were discharged 48 h postdose. […] They underwent a follow-up examination between six and ten days after co-administration for safety evaluation. […] A blood sample was drawn, in the amount of 5 mL at each time point except for 10 mL at 4 h after drug administration, into a heparin-containing blood collection tube and centrifuged at 3000 rpm for 10 min at 4 °C. A plasma sample obtained at each time point was then stored at - 20 °C before shipping in a chilled condition with dry ice to Sekisui Medical Co., Ltd. (Ibaraki, Japan) for determination of plasma drug concentrations. […] Ultrafiltered plasma samples were used to determine unbound plasma concentrations of dotinurad by a validated LC-MS/MS method (LC:LC-20AD system, SHIMADZU. MS/MS: API4000, SCIEX). The LLOQ was 0.1 ng/mL.

[2] = Urinary excretion (fe) of dotinurad metabolites with and without oxaprozin in healthy adult males; assay type: in vivo, human
Description: (§1) This was a single-center, open-label, two-period, sequential-group, add-on, drug–drug interaction study in healthy adult males conducted at a Japanese clinical pharmacology study center. Following a screening period ranging from 29 days before, to the day before the study drug administration (Day -1), eligible subjects were admitted to the study site on Day-1, received a single 4 mg oral dose of dotinurad in a fed state, and were discharged 48 h postdose. […] They underwent a follow-up examination between six and ten days after co-administration for safety evaluation.
After the pH of the urine sample collected after each time interval was adjusted to ≤ 7.0, the sample was stored at – 20 °C before shipping in a chilled condition with dry ice to Fuji Yakuhin Co., Ltd. (Saitama, Japan) for determination of urinary concentrations of dotinurad’s metabolites.
Urinary concentrations of metabolites (glucuronate conjugates and sulfate conjugates) were determined by a validated LC-MS/MS method (LC: Nexera X2 and Prominence, SHIMADZU. MS/MS: Triple Quad 4500, SCIEX). The LLOQ was 10 ng/mL for both metabolites.

[3] = Unbound fraction of dotinurad in plasma at the time of Cmax (ultrafiltered plasma, LC-MS/MS); assay type: in vivo, human
Description: (§2) Ultrafiltered plasma samples were used to determine unbound plasma concentrations of dotinurad by a validated LC–MS/MS method (LC:LC-20AD system, SHIMADZU. MS/MS: API4000, SCIEX). The LLOQ was 0.1 ng/mL.

[4] = system: healthy adult males; test: Safety evaluation: adverse events in healthy adult males; assay type: in vivo, human; details: for Adverse events reported, all: by treatment period, causal relationship with study drugs ruled out; for Peritonsillar abscess, incidence / Peritonsillar abscess, number of events / Pharyngitis, incidence / Pharyngitis, number of events / Urine beta 2 microglobulin increased, incidence / Urine beta 2 microglobulin increased, number of events: healthy adult males, n = 12 for each drug alone, n = 11 for co-administration
Description: as §1
Adverse events (AEs), a measure used for safety evaluation, were coded by preferred term using the Medical Dictionary for Regulatory Activities (MedDRA) version 20.1 (Japanese Maintenance Organization, Tokyo, Japan) and tabulated. The investigator observed/examined/assessed AEs, subjective symptoms and objective findings, vital signs, electrocardiography, and laboratory test values.
The safety analysis population included subjects who received at least one dose of dotinurad and who had data for safety evaluation.

[5] = system: healthy adult males; test: Estimated glomerular filtration rate 24 h after dosing; assay type: in vivo, human
[6] = system: human plasma protein; parameters: method as in earlier work; details: cited from earlier work
[7] = system: CYPs, UGTs, sulfotransferases, and drug transporters; parameters: method as in earlier work; details: at clinical doses, several in vitro studies; cited from earlier work
[8] = system: urate transporter 1 (URAT1); parameters: method as in PMID 31371478, PMID 31754883; details: cited from earlier work
[9] = system: ATP-binding cassette subfamily G member 2 (ABCG2); parameters: method as in PMID 31371478, PMID 31754883; details: compared to probenecid, benzbromarone, and lesinurad; cited from earlier work
[10] = system: organic anion transporter (OAT) 1; parameters: method as in PMID 31371478, PMID 31754883; details: compared to probenecid, benzbromarone, and lesinurad; cited from earlier work
[11] = system: OAT3; parameters: method as in PMID 31371478, PMID 31754883; details: compared to probenecid, benzbromarone, and lesinurad; cited from earlier work
[12] = Plasma oxaprozin concentrations before and 24 h after co-administration (steady-state check); assay type: in vivo; details: male, human, oral, 24 h after co-administration with dotinurad, n = 11
Description: A blood sample was drawn, in the amount of 5 mL at each time point except for 10 mL at 4 h after drug administration, into a heparin-containing blood collection tube and centrifuged at 3000 rpm for 10 min at 4 °C. A plasma sample obtained at each time point was then stored at – 20 °C before shipping in a chilled condition with dry ice to Sekisui Medical Co., Ltd. (Ibaraki, Japan) for determination of plasma drug concentrations.
as §2

[13] = [dotinurad and oxaprozin]/[dotinurad alone], n = 11
[14] = dotinurad 4 mg co-administered with oxaprozin 600 mg, fed, n = 11
[15] = dotinurad alone, single 4 mg oral dose, fed, n = 12
[16] = male, human, plasma, dotinurad alone, single 4 mg oral dose, fed, n = 12

## O=C(c1cc(Cl)c(O)c(Cl)c1)N1CS(=O)(=O)c2ccccc21 [Dotinurad, dotinurad]
[1]; [13]
  AUC0–inf, geometric mean ratio (90% CI): 1.165 (1.114–1.219)
  CLtot/F, geometric mean ratio (90% CI): 0.858 (0.820–0.898)
  Cmax, geometric mean ratio (90% CI): 0.982 (0.945–1.021)
  T1/2, geometric mean ratio (90% CI): 1.205 (1.176–1.236)
  Tmax, geometric mean ratio (90% CI): 1.000 (0.844–1.185)
  Vd/F, geometric mean ratio (90% CI): 1.035 (0.999–1.071)
[1]; co-administration with oxaprozin compared with dotinurad alone
  Increase in AUC0–inf of dotinurad: 16.5%
[1]; [14]
  AUC0–inf, mean: 4487 ng・h/mL
  CLtot/F, mean: 0.901 L/h
[1]; [15]
  AUC0–inf, mean: 3846 ng・h/mL
  CLtot/F, mean: 1.065 L/h
[1]; [16]
  Cmax: 271 ng/mL
  Tmax: 3.67 h
  Vd/F: 14.9 L
[1]; male, human, plasma, dotinurad alone, single 4 mg oral dose, fed, n = 12, read-out: T1/2, mean (converted)
  half-life: 591 min
[2]; assuming absence of compensatory enhancement of other metabolic pathways
  Estimated increase in dotinurad exposure when co-administered with oxaprozin: approximately 13%
[2]; calculated from fe of glucuronate conjugates
  Proportion of glucuronidation inhibited by co-administered oxaprozin in terms of the entire metabolism of dotinurad: 13.2%
[3]; [13]
  Unbound fraction in plasma at Cmax, geometric mean ratio (90% CI): 1.615 (1.454–1.794)
[3]; male, human, plasma, oral, dotinurad alone, 4 mg, n = 12
  fraction unbound: 0.00534
[4]
  Adverse events reported, all: Two events occurred in two subjects
  Peritonsillar abscess, incidence: 0.0%
  Peritonsillar abscess, number of events: 0
  Pharyngitis, incidence: 8.3%
  Pharyngitis, number of events: 1
  Urine beta 2 microglobulin increased, incidence: 8.3%
  Urine beta 2 microglobulin increased, number of events: 1
[5]; 24 h after administration of dotinurad alone, n = 12
  Estimated glomerular filtration rate (eGFR) (mean ± SD): 100.9 ± 13.0 mL/min/1.73 m^2
[5]; 24 h after co-administration with oxaprozin, n = 11
  Estimated glomerular filtration rate (eGFR) (mean ± SD): 93.3 ± 13.0 mL/min/1.73 m^2
[6]; at clinical doses, in vitro
  Effect on plasma protein binding rates of potentially co-administered drugs: no effects
[7]
  Effect on CYPs, UGTs, sulfotransferases, and drug transporters: no effects
[8]
  URAT1 inhibition: potent URAT1 inhibitor
[9]
  Effect on ABCG2: minimal effect
[10]
  Effect on OAT1: minimal effect
[11]
  Effect on OAT3: minimal effect

## O=C(O)CCc1nc(-c2ccccc2)c(-c2ccccc2)o1 [Oxaprozin, oxaprozin, reference compound]
[4]
  Adverse events reported, all: one event occurred in one subject
  Peritonsillar abscess, incidence: 8.3%
  Peritonsillar abscess, number of events: 1
  Pharyngitis, incidence: 0.0%
  Pharyngitis, number of events: 0
  Urine beta 2 microglobulin increased, incidence: 0.0%
  Urine beta 2 microglobulin increased, number of events: 0
[12]
  concentration at 24 h: 102 ± 10.4 µg/mL
[6]; human plasma, ultrafiltration method
  Effect on plasma protein binding rate of dotinurad: lower the plasma protein binding rate of dotinurad
